Here are results for one molecule from paper PMC5064435, “Inhibition of endoplasmic reticulum glucosidases is required for in vitro and in vivo dengue antiviral activity by the iminosugar UV-4” (Antiviral Research, 2016).

What all share (assay type): biochemical
Holding throughout (conditions): read-out: IC50 ^a / UV-4B

Test [1] addresses T1, Rat intestinal isomaltase (Rattus norvegicus, UniProt P23739).
T1 construct: gene Si; native rat intestinal enzyme; isomaltase (N-terminal) subunit of sucrase-isomaltase
Nature of the test: enzyme inhibition assay. An excerpt: enzyme inhibition assay on Rat intestinal isomaltase

Test [2] addresses T2, Mouse ER α-glucosidase II (Mus musculus, UniProt Q8BHN3).
T2 construct: gene Ganab; with Glucosidase 2 subunit beta
T2 sequence (Q8BHN3 33-944): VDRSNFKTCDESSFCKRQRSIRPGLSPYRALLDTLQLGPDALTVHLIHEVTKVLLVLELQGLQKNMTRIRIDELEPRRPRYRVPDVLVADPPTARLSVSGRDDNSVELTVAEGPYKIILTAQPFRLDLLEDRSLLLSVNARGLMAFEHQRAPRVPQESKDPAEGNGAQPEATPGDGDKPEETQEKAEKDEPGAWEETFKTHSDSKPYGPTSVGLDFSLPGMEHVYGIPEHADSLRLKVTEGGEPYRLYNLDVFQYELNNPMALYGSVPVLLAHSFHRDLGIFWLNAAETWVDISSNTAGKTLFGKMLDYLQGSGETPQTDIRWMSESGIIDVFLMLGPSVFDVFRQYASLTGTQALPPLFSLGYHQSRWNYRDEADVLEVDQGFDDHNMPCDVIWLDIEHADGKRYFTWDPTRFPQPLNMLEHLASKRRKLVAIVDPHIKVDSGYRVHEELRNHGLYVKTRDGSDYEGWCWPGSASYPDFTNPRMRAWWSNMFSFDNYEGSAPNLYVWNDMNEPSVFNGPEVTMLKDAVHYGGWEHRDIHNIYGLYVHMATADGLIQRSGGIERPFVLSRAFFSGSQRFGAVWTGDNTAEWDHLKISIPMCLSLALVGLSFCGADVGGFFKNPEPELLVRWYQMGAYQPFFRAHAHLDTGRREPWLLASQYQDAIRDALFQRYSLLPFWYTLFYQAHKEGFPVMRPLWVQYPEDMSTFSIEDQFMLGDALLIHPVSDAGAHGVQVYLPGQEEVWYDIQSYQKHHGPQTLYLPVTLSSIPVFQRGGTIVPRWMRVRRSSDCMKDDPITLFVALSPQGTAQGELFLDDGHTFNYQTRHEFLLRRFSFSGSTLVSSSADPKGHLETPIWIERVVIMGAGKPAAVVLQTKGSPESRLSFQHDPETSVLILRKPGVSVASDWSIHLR
T2 sequence (O08795 15-521 partner): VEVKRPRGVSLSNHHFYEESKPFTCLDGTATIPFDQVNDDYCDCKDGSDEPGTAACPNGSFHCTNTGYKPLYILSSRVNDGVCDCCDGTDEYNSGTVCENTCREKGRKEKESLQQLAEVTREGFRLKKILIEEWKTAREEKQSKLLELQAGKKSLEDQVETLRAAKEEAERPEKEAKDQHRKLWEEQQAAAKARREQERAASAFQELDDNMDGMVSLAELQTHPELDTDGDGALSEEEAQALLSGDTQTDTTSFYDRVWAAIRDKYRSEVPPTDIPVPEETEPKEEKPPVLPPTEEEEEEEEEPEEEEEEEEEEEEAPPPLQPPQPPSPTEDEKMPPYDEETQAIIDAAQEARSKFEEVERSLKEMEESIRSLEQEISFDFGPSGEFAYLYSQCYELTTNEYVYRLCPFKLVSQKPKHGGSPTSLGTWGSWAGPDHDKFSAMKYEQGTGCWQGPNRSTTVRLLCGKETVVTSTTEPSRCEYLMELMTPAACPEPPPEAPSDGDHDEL
Nature of the test: enzyme inhibition assay, purified enzyme. From the text:
enzyme inhibition assay, purified enzyme on Mouse ER α-glucosidase II

Another test concerns the target T3, Mouse ER α-glucosidase I (Mus musculus, UniProt Q80UM7).
T3 construct: gene Mogs
T3 sequence (Q80UM7 1-834): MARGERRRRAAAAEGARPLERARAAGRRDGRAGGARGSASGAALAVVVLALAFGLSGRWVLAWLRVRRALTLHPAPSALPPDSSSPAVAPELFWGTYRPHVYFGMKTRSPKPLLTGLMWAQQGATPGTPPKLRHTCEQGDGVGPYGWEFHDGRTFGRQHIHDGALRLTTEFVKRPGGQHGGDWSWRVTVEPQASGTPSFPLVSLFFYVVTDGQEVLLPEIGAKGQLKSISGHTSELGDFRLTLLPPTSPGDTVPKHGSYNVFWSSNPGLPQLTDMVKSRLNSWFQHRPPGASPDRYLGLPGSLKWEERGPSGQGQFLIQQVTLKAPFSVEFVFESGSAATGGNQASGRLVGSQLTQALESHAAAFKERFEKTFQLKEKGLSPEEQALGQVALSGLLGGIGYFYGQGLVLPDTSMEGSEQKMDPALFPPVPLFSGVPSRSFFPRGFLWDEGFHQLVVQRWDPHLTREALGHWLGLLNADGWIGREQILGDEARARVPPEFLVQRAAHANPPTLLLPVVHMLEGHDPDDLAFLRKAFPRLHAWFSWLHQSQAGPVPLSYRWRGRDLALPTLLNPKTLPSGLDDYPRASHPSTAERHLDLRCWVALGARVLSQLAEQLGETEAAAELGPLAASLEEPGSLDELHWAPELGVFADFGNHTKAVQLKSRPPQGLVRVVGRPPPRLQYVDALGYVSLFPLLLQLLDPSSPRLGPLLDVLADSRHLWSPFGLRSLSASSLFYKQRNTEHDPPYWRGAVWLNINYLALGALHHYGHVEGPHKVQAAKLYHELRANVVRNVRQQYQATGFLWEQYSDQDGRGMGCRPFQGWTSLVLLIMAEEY
Nature of the test: enzyme inhibition assay, purified enzyme. From the text: enzyme inhibition assay, purified enzyme on Mouse ER α-glucosidase I

For test [3], the target named is T4, Human lysosome (α-glucosidase) (Homo sapiens, UniProt P10253).
T4 construct: gene GAA
Nature of the test: enzyme inhibition assay. From the text:
enzyme inhibition assay on Human lysosome (α-glucosidase)

Test [4] addresses T5, Human lysosome (α-galactosidase) (Homo sapiens, UniProt P06280).
T5 construct: gene GLA
T5 sequence (P06280 32-429): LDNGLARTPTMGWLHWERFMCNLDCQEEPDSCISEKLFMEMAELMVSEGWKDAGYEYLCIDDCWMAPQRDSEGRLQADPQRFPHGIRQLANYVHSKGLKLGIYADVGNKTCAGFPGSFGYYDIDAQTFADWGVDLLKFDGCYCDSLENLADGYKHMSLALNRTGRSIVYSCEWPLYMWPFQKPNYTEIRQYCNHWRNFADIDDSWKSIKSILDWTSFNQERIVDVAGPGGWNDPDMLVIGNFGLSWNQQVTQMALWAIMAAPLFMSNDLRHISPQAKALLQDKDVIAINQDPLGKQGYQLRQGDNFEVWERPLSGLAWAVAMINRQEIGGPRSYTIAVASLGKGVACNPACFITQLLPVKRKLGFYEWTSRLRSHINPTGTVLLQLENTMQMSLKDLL
Nature of the test: enzyme inhibition assay. An excerpt:
enzyme inhibition assay on Human lysosome (α-galactosidase)

Molecules are shown by their SMILES. Structures can show the parent of a compound that is named as a salt.

T1 sequence (P23739 1-1013 limits assumed): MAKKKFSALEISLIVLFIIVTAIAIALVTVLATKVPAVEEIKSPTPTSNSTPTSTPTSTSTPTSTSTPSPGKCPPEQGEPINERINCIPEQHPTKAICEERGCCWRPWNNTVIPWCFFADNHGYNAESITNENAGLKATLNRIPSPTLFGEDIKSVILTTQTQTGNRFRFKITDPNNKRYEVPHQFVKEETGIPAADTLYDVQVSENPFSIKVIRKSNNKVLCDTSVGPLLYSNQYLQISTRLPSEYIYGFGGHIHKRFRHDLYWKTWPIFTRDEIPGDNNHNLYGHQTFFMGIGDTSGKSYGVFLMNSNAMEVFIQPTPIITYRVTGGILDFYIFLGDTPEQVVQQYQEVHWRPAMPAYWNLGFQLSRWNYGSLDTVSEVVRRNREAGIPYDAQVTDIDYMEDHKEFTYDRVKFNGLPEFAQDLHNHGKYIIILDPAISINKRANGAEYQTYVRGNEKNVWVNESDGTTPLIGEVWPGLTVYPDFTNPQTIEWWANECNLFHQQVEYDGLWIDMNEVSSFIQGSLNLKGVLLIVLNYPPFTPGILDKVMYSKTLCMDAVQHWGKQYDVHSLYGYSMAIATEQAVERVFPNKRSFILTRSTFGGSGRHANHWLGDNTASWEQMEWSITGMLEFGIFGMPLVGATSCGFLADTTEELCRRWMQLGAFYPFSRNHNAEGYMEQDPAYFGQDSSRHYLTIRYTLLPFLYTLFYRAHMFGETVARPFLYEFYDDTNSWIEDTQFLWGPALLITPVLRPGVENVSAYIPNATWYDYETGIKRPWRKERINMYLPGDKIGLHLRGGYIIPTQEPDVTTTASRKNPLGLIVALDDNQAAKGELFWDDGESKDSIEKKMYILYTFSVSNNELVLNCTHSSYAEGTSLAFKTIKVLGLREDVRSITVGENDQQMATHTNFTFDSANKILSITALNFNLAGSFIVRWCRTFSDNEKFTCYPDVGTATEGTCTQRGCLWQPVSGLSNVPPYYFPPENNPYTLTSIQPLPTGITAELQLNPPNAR

On to `COCCCCCCCCCN1C[C@H](O)[C@@H](O)[C@H](O)[C@H]1CO` [UV-4B, N-(9′-methoxynonyl)-1-deoxynojirimycin hydrochloride], for which the IC50 in test [1] was 1.4 µM; in test [2] it was 1.8 µM; on Mouse ER α-glucosidase I it was 0.16 µM; in test [3], 0.39 µM; in test [4] it was above 1000 µM.
